Assay results as given in PMC7078479, “Sulfamoyl Heteroarylcarboxylic Acids as Promising Metallo-β-Lactamase Inhibitors for Controlling Bacterial Carbapenem Resistance” (mBio, 2020).

Columns and labels:
IMP-1 = biological target: T1, IMP-1 (Serratia marcescens, UniProt P52699); assay: Library screening, nitrocefin hydrolysis by IMP-1; format: biochemical; details: 100 μM compound, 10 nM IMP-1, 100 μM nitrocefin, 1 h
T1 construct: made in house
Excerpt: Screening compounds were provided from the curated collection of an in-house small-molecule chemical library (the chemical library of the Institute of Transformative Bio-Molecules [ITbM]). The library is composed of structurally diverse molecules, including synthetic molecules with unknown activity, known enzyme inhibitors, approved drugs, and natural products. Some of these molecules are commercially available from several worldwide chemical suppliers, whereas some are structurally novel molecules synthesized in-house by ITbM. All compounds were dissolved in dimethyl sulfoxide (DMSO) at a concentration of 10 mM and stored at −20°C until further use. We screened 22,671 compounds in 96-well flat plates using nitrocefin as a reporter substrate ([37]). Each well included 20 mM HEPES-NaOH buffer (pH 7.5) containing 10 nM IMP-1, 100 μM nitrocefin, and 100 μM concentrations of the tested compounds. The absorbance (Abs) at 482 nm was measured after incubation for 1 h at room temperature. The inhibitory effect of compounds against IMP-1 was evaluated using the following equation: Residual ratio=Abs482 nm compound/Abs482 nm no compound

[1] = test system: P. aeruginosa PAO1/pME-NDM-1; assay: Susceptibility testing, NDM-1-producing P. aeruginosa PAO1; format: cell-based; details: Pseudomonas aeruginosa, PAO1, read-out: MIC of MPM without inhibitor
Description: (§1) MICs were determined via the microdilution method according to the CLSI guidelines ([38]). In brief, 5 × 10^4 bacterial cells were inoculated in 100 μl of cation-adjusted Mueller-Hinton broth (Becton, Dickinson and Company, Franklin Lakes, NJ) containing the β-lactams and appropriately diluted inhibitors. The final concentration of DMSO was maintained at 2% in the assays. The tested plates were then incubated at 35°C for 16 to 20 h. The MIC value was determined as the lowest concentration of tested β-lactams where no bacterial growth was visibly observed. The optical density at 600 nm (OD600) value was measured using a plate reader for drawing the heat maps. The FIC index value was calculated using the following equation: FIC index=MIC of β-lactam with inhibitor/MIC of β-lactam alone+MIC of inhibitor with β-lactam/MIC of inhibitor alone

E. coli DH5α/pBC-IMP-1 = assay: Susceptibility and checkerboard testing, IMP-1-producing E. coli; format: cell-based, Escherichia coli
Description: as §1
(§2) Unless noted otherwise, the FIC index was defined as the lowest value among all obtained values. The synergistic effect was defined as the effect observed when the FIC index value was ≤0.5.

[2] = test system: IMP-1-producing E. coli NUBL-24; assay: Susceptibility and checkerboard testing, E. coli NUBL-24; format: cell-based; details: Escherichia coli; E. coli NUBL-24 (blaIMP-1), MPM alone
Description: as §1, §2
The initial density of E. coli NUBL-24 (blaIMP-1) (MPM MIC, 8 μg/ml) was adjusted to approximately 5 × 10^6 CFU/ml. Either MPM (1 μg/ml) alone or SFC (10 μg/ml) alone or a combination of the two was added to the bacterial solution, and then incubation was performed at 37°C. LB broth containing only bacteria was used as a control. […]

E. coli DH5α/pBC-NDM-1 = assay: Susceptibility and checkerboard testing, NDM-1-producing E. coli; format: cell-based, Escherichia coli; details: Escherichia coli, read-out: MIC of MPM without inhibitor
Description: as §1, §2

[3] = test system: E. coli BL21(DE3)/pET-SIM-1; assay: Susceptibility testing, SIM-1-producing E. coli; format: cell-based; details: Escherichia coli, read-out: MIC of MPM without inhibitor
Description: as §1

E. coli DH5α/pBC-TMB-2 = assay: Susceptibility testing, TMB-2-producing E. coli; format: cell-based; details: Escherichia coli, read-out: MIC of MPM without inhibitor
Description: as §1

[4] = test system: P. aeruginosa PAO1/pME-IMP-1; assay: Susceptibility testing, IMP-1-producing P. aeruginosa PAO1; format: cell-based; details: Pseudomonas aeruginosa, PAO1, read-out: MIC of MPM without inhibitor
Description: as §1

[5] = test system: IMP-1-producing E. coli NUBL-24; assay: Mouse infection model, E. coli NUBL-24, survival; format: in vivo, mice; details: SFC 100 mg/kg or MPM 0.2 mg/kg i.p. at 1 and 3 h after infection; within 48 h
Description: All experiments were approved by the Nagoya University Animal Ethics Committee, and all experiments were performed in a manner that minimized animal suffering. Male CD1 mice (4 weeks old; 20 to 25 g body weight) were purchased from Charles River Laboratories Japan (Yokohama, Japan). E. coli NUBL-24 (blaIMP-1) and K. pneumoniae MS5674 (blaNDM-1 and blaVIM-1) strains were inoculated on LB agar plates and grown for 18 h at 37°C. Bacteria were then scraped from the plates, and their concentration was adjusted to 5 × 10^6 to 1 × 10^7 CFU in saline solution containing 5% mucin; this solution was then i.p. injected into the mice. At 1 and 3 h after infection, saline solution, MPM, inhibitors, and a combination of MPM and inhibitor were i.p. injected. Mice were monitored for 7 days to formulate survival curves, after which they were euthanized by CO2 asphyxiation.

[6] = test system: P. aeruginosa PAO1/pME-VIM-2; assay: Susceptibility testing, VIM-2-producing P. aeruginosa PAO1; format: cell-based; details: Pseudomonas aeruginosa, PAO1, read-out: MIC of MPM without inhibitor
Description: as §1

[7] = test system: P. aeruginosa PAO1/pME6032; assay: Susceptibility testing, P. aeruginosa PAO1 with empty vector; format: cell-based; details: Pseudomonas aeruginosa, PAO1, read-out: MIC of MPM without inhibitor
Description: as §1

[8] = test system: IMP-type MBL-producing Enterobacteriaceae; assay: Susceptibility testing, 19 IMP-type MBL-producing Enterobacteriaceae isolates; format: cell-based; details: read-out: MIC of MPM alone
Description: as §1

T1 sequence (P52699 19-246 limits assumed): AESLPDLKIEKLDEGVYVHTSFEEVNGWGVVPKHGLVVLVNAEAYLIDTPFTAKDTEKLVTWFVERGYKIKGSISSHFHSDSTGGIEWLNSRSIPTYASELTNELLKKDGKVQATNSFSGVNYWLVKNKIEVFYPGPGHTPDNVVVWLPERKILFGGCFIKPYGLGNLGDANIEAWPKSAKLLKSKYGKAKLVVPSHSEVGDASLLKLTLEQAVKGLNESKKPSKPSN

SMILES	Residual ratio (Abs482 compound/no compound) (IMP-1)	MIC [1]	MIC of MPM without inhibitor (E. coli DH5α/pBC-IMP-1; E. coli DH5α/pBC-IMP-1)	MIC (E. coli DH5α/pBC-IMP-1; Escherichia coli, read-out: MIC of MPM without inhibitor)	MIC [2]	MIC (E. coli DH5α/pBC-NDM-1)	MIC [3]	MIC (E. coli DH5α/pBC-TMB-2)	MIC [4]	Rescue of infected mice by monotherapy [5]	MIC [6]	MIC [7]	MIC [8]
O=C([O-])C1=CS[C@@H]2/C(=C\c3cn4c(n3)COCC4)C(=O)N12.[Na+] [BLI-489]	< 0.6												
C[C@@H](O)[C@H]1C(=O)N2C(C(=O)O)=C(S[C@@H]3CN[C@H](C(=O)N(C)C)C3)[C@H](C)[C@H]12 [MPM, meropenem, reference compound]		8 µg/mL	1 µg/mL	1 µg/mL	8 µg/mL	64 µg/mL	16 µg/mL	16 µg/mL	128 µg/mL	failed to rescue mice	32 µg/mL	0.5 µg/mL	≥ 2 µg/mL
